Assay results: ChEMBL document CHEMBL3608220, “Isolation and structure elucidation of bioactive compounds from the roots of the Tunisian Ononis angustissima L” (Bioorg Med Chem Lett, 2015)
Values after ≈ are worked out from the molar mass of the structure shown. Active and inactive are the calls of the source. The calls are words filed in the database; no cut-off is given here.

Experiments:
[1] = Cytotoxicity against rat PC12 cells assessed as cell viability at 75 uM after 24 hrs by MTT assay relative to control; type: cell-based; conditions: pc-12, 24 h
[2] = Antioxidant activity assessed as ABTS radical scavenging activity after 6 mins; type: physicochemical
[3] = Antioxidant activity assessed as reduction of Fe3+ to Fe2+ after 20 mins; type: physicochemical
[4] = Cytotoxicity against rat PC12 cells assessed as cell viability at 30 uM after 24 hrs by MTT assay; type: cell-based; conditions: pc-12, 24 h
[5] = Antioxidant activity assessed as DPPH radical scavenging activity after 30 mins; type: physicochemical
[6] = Cytotoxicity against rat PC12 cells assessed as cell viability at 150 uM after 24 hrs by MTT assay relative to control; type: cell-based; conditions: pc-12, 24 h
PC-12 [7] = experiment: (§1) Neuroprotective activity against amyloid beta (25 to 35)-induced toxicity in rat PC12 cells assessed as increase in cell viability at 30 uM after 24 hrs by MTT assay relative to control; type: functional
[8] = (§2) Neuroprotective activity against amyloid beta (25 to 35)-induced toxicity in rat PC12 cells assessed as increase in cell viability at 75 uM after 24 hrs by MTT assay relative to control; type: functional, PC-12
PC-12 [9] = experiment: Neuroprotective activity against amyloid beta (25 to 35)-induced toxicity in rat PC12 cells assessed as increase in cell viability after 24 hrs by MTT assay; type: functional, cell-based
[10] = as §1; type: functional, PC-12
PC-12 [11] = experiment: as §2; type: functional

Row | Structure (SMILES) | Activity [1] | IC50 [2] [µg/mL] | IC50 [3] [µg/mL] | Activity [4] | IC50 [5] [µg/mL] | Activity [6] | Activity (PC-12 [7]) | Activity [8] [%] | Activity (PC-12 [9]) | Activity [10] [%] | Activity (PC-12 [11])
1 | COc1ccc(C2=CC(=O)OC2Cc2ccc(O)cc2)c(O[C@@H]2O[C@H](CO)[C@@H](O)[C@H](O)[C@H]2O)c1 (some centres undefined) | Toxic | 61.39 (≈ 129 µM) | 46.93 (≈ 98.9 µM) | Non-toxic | 25.67 (≈ 54.1 µM) | Toxic | inactive | – | – | – | –
2 | OC[C@H]1O[C@@H](Oc2ccc3c(c2)OCC2c4cc5c(cc4OC32)OCO5)[C@H](O)[C@@H](O)[C@@H]1O (some centres undefined) | Toxic | 63.21 (≈ 142 µM) | 70.37 (≈ 158 µM) | Non-toxic | 28.06 (≈ 62.9 µM) | Toxic | inactive | – | – | – | –
3 | O=c1c(O)c(-c2ccc(O)c(O)c2)oc2cc(O)cc(O)c12 [QUERCETIN] | – | 6.94 (≈ 23 µM) | – | – | 4.89 (≈ 16.2 µM) | – | – | – | – | – | –
4 | O=C(O)CC(=O)OC[C@H]1O[C@@H](Oc2ccc3c(c2)OCC2c4cc5c(cc4OC32)OCO5)[C@H](O)[C@@H](O)[C@@H]1O (some centres undefined) | – | 60.64 (≈ 114 µM) | 64.31 (≈ 121 µM) | – | 25.93 (≈ 48.7 µM) | – | – | – | – | – | –
5 | O=C1C=C(c2ccc(O)cc2O)C(Cc2ccc(O)cc2)O1 (centres undefined) | Toxic | 28.29 (≈ 94.8 µM) | 38.52 (≈ 129 µM) | Non-toxic | 19.53 (≈ 65.5 µM) | Toxic | inactive | – | – | – | –
6 | Oc1ccc2c(c1)OC[C@H]1c3cc4c(cc3O[C@@H]21)OCO4 [MAACKIAIN] | Non-toxic | – | – | Non-toxic | 24.48 (≈ 86.1 µM) | Toxic | – | 15 | Dose-dependent effect | 5 | –
7 | COc1ccc(-c2coc3cc(O)ccc3c2=O)cc1 [FORMONONETIN] | – | 77.42 (≈ 289 µM) | 62.57 (≈ 233 µM) | – | 43.51 (≈ 162 µM) | – | – | – | – | – | –
8 | COc1ccc2c(c1)O[C@H]1c3ccc(O)cc3OC[C@@H]21 | Non-toxic | 86.29 (≈ 319 µM) | 82.37 (≈ 305 µM) | Non-toxic | 45.91 (≈ 170 µM) | Toxic | – | 30 | Dose-dependent effect | 18 | –
9 | COc1cc(O[C@@H]2O[C@H](CO)[C@@H](O)[C@H](O)[C@H]2O)c(O)cc1-c1coc2cc(O)ccc2c1=O | – | – | – | – | 20.45 (≈ 44.2 µM) | – | – | – | – | – | –
10 | O=C1C=C(c2ccc(O)cc2O[C@@H]2O[C@H](CO)[C@@H](O)[C@H](O)[C@H]2O)C(Cc2ccc(O)cc2)O1 (some centres undefined) | Non-toxic | 46.72 (≈ 101 µM) | 39.81 (≈ 86.5 µM) | Non-toxic | 21.43 (≈ 46.5 µM) | Toxic | inactive | – | – | – | inactive
11 | COc1ccc(-c2coc3cc(O[C@@H]4O[C@H](CO)[C@@H](O)[C@H](O)[C@H]4O)ccc3c2=O)cc1 [ONONIN] | – | 71.3 (≈ 166 µM) | 57.21 (≈ 133 µM) | – | 34.17 (≈ 79.4 µM) | – | – | – | – | – | –
12 | Cc1cc(C(C)(C)C)c(O)c(C(C)(C)C)c1 [BUTYLATED HYDROXYTOLUENE] | – | – | 41.64 (≈ 189 µM) | – | 9.23 (≈ 41.9 µM) | – | – | – | – | – | –
